Measurements published in patent US20220143183A1, “PHOTOSWITCHABLE PROTACS AND SYNTHESIS AND USES THEREOF” (New York University, priority 2019, published 2022).

Legend:
RS4;11 lymphoblast cells = assay: Cell viability assay (Promega MTS), dark or pulsed irradiation; format: cell-based, human; details: 72 h, dark vs pulsed 390 nm irradiation
Description: Optical control of BRD2-4 with PHOTACs. To assess the biological activity of the PHOTACs, their effect on the viability of RS4;11 lymphoblast cells was tested. Cells were treated in a 96-well plate with increasing concentrations of PHOTACs and were either irradiated with 390 nm light pulses (100 ms every 10 s) for 72 h or incubated with the compound in the dark. Subsequently, cell viability assays (Promega MTS) were performed, as previously described.
Cell culture. The human acute lymphoblastic leukemia RS4;11 (ATCC® CRL-1873™) cell line was purchased from the American Type Culture Collection and cultured in RPMI1640 medium (Gibco) with 10% fetal bovine serum (FBS) and 1% penicillin/streptomycin (PS) in a humidified incubator at 37° C. with 5% CO2 in air. Cells were divided every 2-3 days and the concentration was maintained between 1×10^5 and 1×10^6 cells/mL. For the experiments compounds were serially diluted in RPMI160 without the dye phenol red (Gibco) to reduce the influence of the dye by absorption. Azobenzene stocks and dilutions were strictly kept in the dark and prepared under red light conditions.
Colorimetric MTT Assays. The activity of dehydrogenase enzymes in metabolically active cells, as a quantitative measurement for cytotoxicity and proliferation, was determined by colorimetric measurement of the reduction of [3-(4,5-dimethylthiazol-2-yl)-5-(3-carboxymethoxyphenyl)-2-(4-sulfophenyl)-2H-tetrazolium (MTS) to formazan. The absorbance of formazan at 490 nm was measured on a FLUOstar Omega microplate reader (BMG Labtech).
Cells were treated with different concentrations, ranging from 10 μM to 1 nM, of our compounds and incubated on a 96-well plate for 72 h. They were placed in light-proof boxes and exposed to the lighting conditions specified in the experiment for 72 h. Next, 10 μL of Promega CellTiter 96® AQueous One Solution Reagent was added to each well and incubated for further 4-7 hours. The absorbance at 490 nm was then recorded with a 96-well plate reader.
(§1) LED illumination. For illumination of the cells we used the cell disco system as previously described in the literature^[25]. 390 nm 5 mm LEDs were purchased from Roithner Lasertechnik. Cells were preirradiated for 1 min at 390 nm, followed by 100 ms pulses every 10 s in 96- or 6-well plates.

BRD4 = BRD4 (Homo sapiens, UniProt O60885); assay: Western blot of BRD4 levels in RS4;11 cells; format: cell-based; set-up: endogenous in cells; host or cells: RS4;11 (ATCC CRL-1873); details: 4 h
Description: Next, the light dependence of targeted protein degradation was analyzed in RS4;11 cells by western blot analysis of the BET proteins BRD2-4 (FIG. 5). To this end, cells were treated with increasing concentrations of our lead compound, PHOTAC-I-3, for 4 h and pulse-irradiated with 390 nm light (100 ms every 10 s). […] The cereblon-dependent degradation was confirmed by a competition experiment (FIG. 5E), and further validated by siRNA knockdown of cereblon (FIG. 13).
Western Immunoblot Analysis. Rabbit monoclonal Antibodies for BRD4 (#13440), β-Actin (#4970) c-Myc (#5605) and Anti-rabbit IgG, HRP-linked Antibody (#7074) were purchased from Cell Signalling Technologies.
(§2) Cells were incubated with different concentrations of selected compounds. They were placed in a light-proof box and preirradiated for 1 min at 390 nm followed by 100 ms pulses every 10 s or were kept in the dark for 4 h.
(§3) Cultured cells were collected by centrifugation and washed twice with cold PBS. The supernatant was removed and each cell pellet was lysed in 100 μL NP40-Cell-Lysis Buffer+0.1% SDS+1 mM PMSF+ protease inhibitor cocktail (Sigma Aldrich) for 30 min on ice, with vortexing at 10-minute intervals. Afterwards, cells were centrifuged at 13.000 rpm for 10 min at 4° C. Samples were stored on ice and the supernatant was collected for protein concentration determination using a Thermofisher Scientific Pierce™ Coomassie Plus (Bradford) Assay Kit.
(§4) The samples were diluted each with 5 μL Laemmli sample buffer Invitrogen (NuPAGE LDS Sample Buffer 4×) and 1 μL DTT, heated at 95° C. for 5 min. Respectively 20 μL of each sample was loaded in a lane of a Bio-Rad Mini-PROTEAN TGX precast Gel, 4-20%, used with tris-glycine SDS Running buffer. The gel ran 5 min at 50 V, then 35 min at 140 V. Next step was the electrotransfer to a polyvinylidene difluoride (PVDF) membrane which was carried out using an iBlot™ 2 Dry Blotting System set to the standard program. After the transfer, the membrane was washed with 25 mL TB ST for 5 min and subsequent incubated in 25 mL of blocking buffer (1×TBST+5% nonfat dry milk, Blotto, Santa Cruz Biotechnology) for 1 h at room temperature. The membrane was washed three times for 5 min each with 15 mL of TBST and incubated in a 10 mL antibody dilution buffer with gentle agitation at 4° C. overnight (Actin: 1:1000; c-MYC: 1:1000; BRD4: 1:1000). The next day, the membrane was washed again three times for 5 min each with 15 mL TBST, followed by incubation with anti-rabbit, HRP-linked antibody (1:2000) in 10 mL blocking buffer with gentle agitation for 1 h at room temperature. Afterwards, the membrane was washed three times for 5 min each with 15 mL TBST and then incubated in 10 mL of Clarity Max Western ECL Substrate solution for 5 min. Chemoluminescence imaging was performed on a Bio-Rad ChemiDoc™ Imaging System.
as §1

FKBP12 = target: T1, FKBP12 (Homo sapiens, UniProt P62942); assay: Immunoblot of FKBP12 levels in RS4;11 cells; format: cell-based; details: for FKBP12 levels: 390 nm pulse irradiation (100 ms every 10 s); for FKBP12 degradation: in the dark; for hook effect in FKBP12 degradation: 4 h, different concentrations; for FKBP12 degradation with MLN4924: in the presence of MLN4924; for light activation among compounds targeting FKBP12: light vs dark
T1 construct: endogenous in cells; host or cells: RS4;11 (ATCC CRL-1873)
T1 sequence (P62942 whole entry): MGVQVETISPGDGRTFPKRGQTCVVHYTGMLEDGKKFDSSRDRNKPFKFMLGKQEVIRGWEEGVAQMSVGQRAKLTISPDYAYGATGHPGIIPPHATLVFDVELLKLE
Description: FIG. 6 depicts optical control of FKBP12 degradation. A) Immunoblot analysis of FKBP12 after treatment of RS4;11 cells with PHOTAC-II-5 for 4 h at different concentrations. Cells were either irradiated with pulses of 390 nm light (left, 100 ms every 10 s) or kept in the dark (right). B) Time course of FKBP12 degradation visualized by immunoblotting. RS4;11 cells were treated with PHOTAC-II-5 (100 nM) and collected at the indicated time points. C) Immunoblot analysis of FKBP12 after treatment of RS4;11 cells with PHOTAC-II-6 for 4 h at different concentrations. Cells were either irradiated with pulses of 390 nm light (left, 100 ms every 10 s) or kept in the dark (right). D) Time course of FKBP12 degradation visualized by immunoblotting. RS4;11 cells were treated with PHOTAC-II-6 (100 nM) and collected at the indicated time points.
FIG. 15 depicts FKBP12 immunoblots in RS4;11 cells. […] B) Degradation of FKBP12. Immunoblot analysis of FKBP12 after treatment of RS4;11 cells with PHOTAC-II-1 for 4 h at different concentrations. Cells were either irradiated with 100 ms pulses of 390 nm light every 10 s (left) or kept the dark (right). C) Time course of FKBP12 degradation visualized by immunoblotting.
Amongst the molecules tested, PHOTAC-II-5 and PHOTAC-II-6 turned out to be the most useful, and the biological investigations have been focused on these molecules (for PHOTACs-II-1-4, see FIG. 16). […] The degradation was slower than in the case of BET proteins, but between 6 and 12 hours the protein was largely absent from the cell lysates (FIG. 6B). […] The time course of FKBP12 degradation by PHOTAC-II-6 was similar to the one observed with PHOTAC-II-5 (FIG. 6D).
as §2, §3, §4
LED illumination. For illumination of the cells we used the cell disco system as previously described in the literature^[25]. […]

Compound	light dependence of activity in viability assay (RS4;11 lymphoblast cells)	concentration at which robust photodegradation of BRD4 was found (BRD4; 390 nm pulses)	hook effect in BRD4 degradation (BRD4; different concentrations, 390 nm)	FKBP12 levels (FKBP12)	FKBP12 degradation (FKBP12)	hook effect in FKBP12 degradation (FKBP12)	FKBP12 degradation with MLN4924 (FKBP12)	light activation among compounds targeting FKBP12 (FKBP12)	BRD4 levels (BRD4; 390 nm pulses (100 ms every 10 s))
Cc1sc2c(c1C)C(c1ccc(Cl)cc1)=N[C@@H](CC(=O)Nc1ccc(/N=N/c3ccc(NC(=O)COc4cccc5c4C(=O)N(C4CCC(=O)NC4=O)C5=O)cc3)cc1)c1nnc(C)n1-2 (stereo partly drawn) [PHOTAC-I-10, 2-((S)-4-(4-chlorophenyl)-2,3,9-trimethyl-6H-thieno[3,2-f][1,2,4]triazolo[4,3-a][1,4]diazepin-6-yl)-N-(4-((E)-(4-(2-((2-(2,6-dioxopiperidin-3-yl)-1,3-dioxoisoindolin-4-yl)oxy)acetamido)phenyl)diazenyl)phenyl)acetamide]	light-dependent behavior	≤ 10 nM	clear hook-effect	–	–	–	–	–	–
CCC(C)(C)C(=O)C(=O)N1CCCC[C@H]1C(=O)O[C@H](CCc1ccc(OC)c(OC)c1)c1cccc(OCC(=O)NCCCNC(=O)COc2c(OC)cc(/N=N\c3cccc4c3CN(C3CCC(=O)NC3=O)C4=O)cc2OC)c1 (stereo partly drawn) [PHOTAC-II-1, (1R)-3-(3,4-dimethoxyphenyl)-1-(3-(2-((3-(2-(4-((2-(2,6-dioxopiperidin-3-yl)-1-oxoisoindolin-4-yl)diazenyl)-2,6-dimethoxyphenoxy)acetamido)propyl)-amino)-2-oxoethoxy)phenyl)propyl-(2S)-1-(3,3-dimethyl-2-oxopentanoyl)-piperidine-2-carboxylate]	–	–	–	slow, but sustained FKBP12 degradation over time	not when kept in the dark	–	–	–	–
CCC(C)(C)C(=O)C(=O)N1CCCC[C@H]1C(=O)O[C@H](CCc1ccc(OC)c(OC)c1)c1cccc(OCC(=O)NCCNC(=O)COc2ccc(/N=N\c3cccc4c3CN(C3CCC(=O)NC3=O)C4=O)cc2)c1 (stereo partly drawn) [PHOTAC-II-5, (1R)-3-(3,4-dimethoxyphenyl)-1-(3-(2-((2-(2-(4-((Z)-(2-(2,6-dioxopiperidin-3-yl)-1-oxoisoindolin-4-yl)diazenyl)phenoxy)acetamido)ethyl)amino)-2-oxoethoxy)phenyl)propyl (25)-1-(3,3-dimethyl-2-oxopentanoyl)piperidine-2-carboxylate]	–	–	–	pronounced effect on FKBP12 levels	no degradation could be observed in the dark	pronounced “hook effect”	inactive	largest light activation	–
COc1cc(/N=N/c2cccc3c2CN(C2CCC(=O)N(C)C2=O)C3=O)cc(OC)c1OCC(=O)NCCCCNC(=O)C[C@@H]1N=C(c2ccc(Cl)cc2)c2c(sc(C)c2C)-n2c(C)nnc21 (stereo partly drawn) [Me-PHOTAC-I-3, 2-((S)-4-(4-chlorophenyl)-2,3,9-trimethyl-6H-thieno[3,2-f][1,2,4]triazolo[4,3-a][1,4]diazepin-6-yl)-N-(4-(2-(2,6-dimethoxy-4-((E)-(2-(1-methyl-2,6-dioxopiperidin-3-yl)-1-oxoisoindolin-4-yl)diazenyl)phenoxy)acetamido)butyl)acetamide]	–	–	–	–	–	–	–	–	inactive control
CCC(C)(C)C(=O)C(=O)N1CCCC[C@H]1C(=O)O[C@H](CCc1ccc(OC)c(OC)c1)c1cccc(OCC(=O)Nc2ccc(/N=N/c3ccc(NC(=O)COc4cccc5c4C(=O)N(C4CCC(=O)NC4=O)C5=O)cc3)cc2)c1 (stereo partly drawn) [PHOTAC-II-6, (1R)-3-(3,4-dimethoxyphenyl)-1-(3-(2-((4-((E)-(4-(2-((2-(2,6-dioxopiperidin-3-yl)-1,3-dioxoisoindolin-4-yl)oxy)acetamido)phenyl)diazenyl)phenyl)amino)-2-oxoethoxy)phenyl)propyl (2S)-1-(3,3-dimethyl-2-oxopentanoyl)piperidine-2-carboxylate]	–	–	–	light-dependent degradation	slight dark activity	pronounced “hook effect”	inactive	largest light activation	–
